Values quoted from earlier work in US4925675A (hiMedics, Inc., priority 1988, dated 1990).
Like-named read-outs stand apart in the source and are kept apart here.

What was measured:
[1] = in vivo

For CC[C@H]1OC(=O)[C@H](C)[C@@H](O[C@H]2C[C@@](C)(OC)[C@@H](O)[C@H](C)O2)[C@H](C)[C@@H](O[C@@H]2O[C@H](C)C[C@H](N(C)C)[C@H]2O)[C@](C)(O)C[C@@H](C)C(=O)[C@H](C)[C@@H](O)[C@]1(C)O [Erythromycin], the pKa is listed as 8.7, the “solubility in simulated intestinal fluid” value (SIF) is listed as “very soluble” and the “solubility in alcohol, chloroform, ether and acetone” value (alcohol, chloroform, ether and acetone) is listed as “freely soluble”. For the same compound, the “solubility in amyl acetate and ethylene dichloride” value (amyl acetate and ethylene dichloride) was “moderately soluble”, the solubility in water was “very slightly soluble” and the solubility in water (listed as erythromycin) was “not highly soluble”. The “absorption in small intestine versus stomach” value [1] was “better absorption characteristics in the small intestine than in the stomach”.
